Data: patent US20100099614A1, “Antimicrobial Peptides and Methods of Use” (priority 2008, published 2010)
Where two headings read alike, the source gives them in different places.

Test system: multiple drug resistant M. tuberculosis strain vertulo
Conditions: for Anti-tuberculosis activity to multi-drug resistant strain (vertulo) Fold (compared to D4): relative to D4

Structure (SMILES): CC[C@@H](C)[C@@H](NC(=O)[C@@H](C)NC(=O)[C@@H](CCCCN)NC(=O)[C@@H](CC(C)C)NC(=O)[C@@H](C)NC(=O)[C@H](NC(=O)[C@@H](Cc1c[nH]cn1)NC(=O)[C@@H](CC(C)C)NC(=O)[C@H](NC(=O)[C@H](NC(=O)[C@@H](CCCCN)NC(=O)[C@@H](CCCCN)NC(=O)[C@@H](C)NC(=O)[C@@H](CO)NC(=O)[C@@H](CCCCN)NC(=O)[C@@H](Cc1ccccc1)NC(=O)[C@H](NC(=O)[C@@H](CCCCN)NC(=O)[C@@H](CC(C)C)NC(=O)[C@@H](Cc1ccccc1)NC(=O)[C@@H](CO)NC(=O)[C@@H](CCCCN)NC(=O)[C@@H](Cc1c[nH]c2ccccc12)NC(=O)[C@@H](CCCCN)NC(C)=O)[C@H](C)O)[C@H](C)O)C(C)C)[C@H](C)O)C(=O)N[C@H](CO)C(=O)N[C@H](CO)C(N)=O [D1]
- Anti-tuberculosis activity to multi-drug resistant strain (vertulo) MIC: 57 µg/mL
- Anti-tuberculosis activity to multi-drug resistant strain (vertulo) MIC (multiple drug resistant strain vertulo): 19.1 µM
- Anti-tuberculosis activity to multi-drug resistant strain (vertulo) Fold (compared to D4): >8.4 fold

Structure (SMILES): CC[C@@H](C)[C@@H](NC(=O)[C@@H](CC(C)C)NC(=O)[C@@H](CCCCN)NC(=O)[C@@H](CC(C)C)NC(=O)[C@@H](CC(C)C)NC(=O)[C@H](NC(=O)[C@@H](Cc1c[nH]cn1)NC(=O)[C@@H](CC(C)C)NC(=O)[C@@H](CCCCN)NC(=O)[C@H](NC(=O)[C@@H](CCCCN)NC(=O)[C@@H](CCCCN)NC(=O)[C@@H](CC(C)C)NC(=O)[C@@H](CO)NC(=O)[C@@H](CCCCN)NC(=O)[C@@H](Cc1ccccc1)NC(=O)[C@H](NC(=O)[C@@H](CCCCN)NC(=O)[C@@H](CC(C)C)NC(=O)[C@@H](Cc1ccccc1)NC(=O)[C@@H](CO)NC(=O)[C@@H](CCCCN)NC(=O)[C@@H](Cc1c[nH]c2ccccc12)NC(=O)[C@@H](CCCCN)NC(C)=O)[C@H](C)O)[C@H](C)O)[C@H](C)O)C(=O)N[C@H](CO)C(=O)N[C@H](CO)C(N)=O [D5]
- Anti-tuberculosis activity to multi-drug resistant strain (vertulo) Fold (compared to D4): >10.3 fold
